“Also recorded” adds a separate entry of the source.
Test system: BDF1 female mice treated with cisplatin
Assay: Effect of pretreatment on BUN/creatinine, AST/ALT, WBC/platelet in blood of cisplatin-treated mice (Example 2)
Format: in vivo
Conditions: daily ×5, blood day 6
Method: Gp 1: medium (saline). Gp 2: saline followed by cisplatin (2.5 mg/kg) 30 min later. Gp 3: UTL-5g (15 mg/kg) followed by cisplatin (2.5 mg/kg) 30 min later. Gp 4: UTL-5g (30 mg/kg) followed by cisplatin (2.5 mg/kg) 30 min later. Gp 5: UTL-5g (60 mg/kg) followed by cisplatin (2.5 mg/kg) 30 min later. Gp 6: amifostine (200 mg/kg) followed by cisplatin (2.5 mg/kg) 30 min later; Gp 7: saline followed by cisplatin (5 mg/kg) 30 min later. Gp 1-Gp 6 were daily ×5, but Gp 7 was by single dose on day 0 only. StDev is shown for each Gp (n=5 for each group except for Gp 7, n=3). ** two-tailed p<0.005 vs medium control by Student's t-test.
(§1) Gp 1: medium (saline). Gp 2: saline followed by cisplatin (2.5 mg/kg) 30 min later. Gp 3: UTL-5g (15 mg/kg) followed by cisplatin 30 min later. Gp 4: UTL-5g (30 mg/kg) followed by cisplatin (2.5 mg/kg) 30 min later. Gp 5: UTL-5g (60 mg/kg) followed by cisplatin (2.5 mg/kg) 30 min later. Gp 6: amifostine (200 mg/kg) followed by cisplatin (2.5 mg/kg) 30 min later. Gp 7: saline followed by cisplatin (5 mg/kg) 30 min later. Gp 1-Gp 6 were daily ×5, but Gp 7 was by single dose on day 0 only. StDev is shown for each Gp (n=5 for each group except n=4 for Gp 7). * P<0.05, ** p<0.005 vs. medium control (Gp 1) by Student's t-test (two-tailed).
as §1, with “p<0.005, *** p<0.0005” for “p<0.005”, “control” for “control (Gp 1)”
BDF1 female mice (average wt ˜20 g/mouse) were randomly divided into the following groups (5 mice per group) and each treated daily ×5 (starting from day 0) by ip injection (0.25 mL/mouse), except in Gp 7, each was treated by a single dose ip injection (0.25 mL/mouse) on day 0 only, as described below • Gp 1: medium (saline) followed by medium (saline) 30 min later • Gp 2: medium (saline) followed by cisplatin (2.5 mg/kg) 30 min later • Gp 3: UTL-5g (15 mg/kg) followed by cisplatin (2.5 mg/kg) 30 min later • Gp 4: UTL-5g (30 mg/kg) followed by cisplatin (2.5 mg/kg) 30 min later • Gp 5: UTL-5g (60 mg/kg) followed by cisplatin (2.5 mg/kg) 30 min later • Gp 6: amifostine (200 mg/kg) followed by cisplatin (2.5 mg/kg) 30 min later • Gp 7: medium (saline) followed by cisplatin (5 mg/kg) 30 min later (single dose on Day 0 only)
Preparation of the test samples are described below: • Cisplatin: Cisplatin was dissolved in saline (0.2 and 0.4 mg/mL in saline) for 2.5 and 5 mg/kg ip injection. • UTL-5g: The stock solution of UTL-5g was first dissolved in DMSO and equal volume of Cremophor/propylene glycol (60/40 v/v) was added to make a stock solution. Immediately before the injection, saline was added to this temporary solution at a 90:10 v/v ratio and mixed thoroughly. Three concentrations for ip injection were prepared (1.25, 2.5, and 5 mg/mL) so that the doses are equivalent to 15, 30, and 60 mg/kg with a 0.25 mL injection. • Amifostine: The stock solution of amifostine was dissolved in saline to the desired concentration (16 mg/mL) for the 200 mg/kg injection.
Cardiac puncture was used to obtain blood from each mouse on day 6. To assess liver/kidney protection by UTL-5g, all blood samples were analyzed for BUN, creatinine, AST, and ALT by the chemistry lab at Henry Ford Health System. Unopette® (Becton Dickinson, Franklin Lakes, N.J.) diluting systems and a hemocytometer were used to assess the effect of UTL-5g on WBC and platelet counts in blood.

[1] = UTL-5g 15, 30, 60 mg/kg ip 30 min before cisplatin 2.5 mg/kg
[2] = ip 30 min before cisplatin 2.5 mg/kg, UTL-5g 15, 30, 60 mg/kg, amifostine 200 mg/kg

With `Cc1cc(C(=O)Nc2ccc(Cl)cc2Cl)no1` [UTL-5g] the “platelet count relative to control” value (UTL-5g 60 mg/kg ip 30 min before cisplatin 2.5 mg/kg) was > 3 times of the control, the “ALT levels, effect of pretreatment” value [1] was “also reduced by UTL-5g; also recorded: lowered the elevated levels” and the “AST levels, effect of pretreatment” value [1] was “reduced by UTL-5g; also recorded: lowered the elevated levels”. For the same molecule, the “WBC count, effect of pretreatment” value (UTL-5g ip 30 min before cisplatin 2.5 mg/kg) was “did not significantly increase the WBC count”, the “BUN levels, effect of pretreatment” value [2] was “suppressed by UTL-5g in a dose-dependent manner; also recorded: lowered the elevated levels” and the “creatinine, effect of pretreatment” value [2] was “Essentially the same results; also recorded: lowered the elevated levels”. The “platelet count, effect of pretreatment” value (ip 30 min before cisplatin 2.5 mg/kg, UTL-5g 15, 30, 60 mg/kg, amifostine 200 mg/kg, vs Gp 1 (Control)) was “increased platelet count in a dose-dependent manner”.

— patent US20120082736A1, “Small-molecule TNF modulator to reduce the side effects of chemotherapy and radiotherapy” (GeneBlue Corporation, priority 2010, published 2012)
